Laboratory results: ChEMBL document CHEMBL3507680, “University of Dundee, Gates Library screen for HepG2 cell viability”

Test: Human HepG2 cell viability assay in 384 well format
Format: toxicity, cell-based
Parameters: dose 125 nL, time 70.5 hour; concentration not given beside the values
Conditions: HepG2 cells, read-out: Inhibition

Row | SMILES | cytotoxicity at 70.5 h [%]
1 | Cc1nn(C)c(C)c1C1CCCN1Cc1nc2ccccc2n1C (stereo not drawn) | 0.883
2 | CCn1c(C2CCCN(C(=O)C(C)(C)OC)C2)nn(CCN(C)C)c1=O (stereo not drawn) | -1.55
3 | CNC(=O)COc1ccc(CNCc2ccc(F)cc2F)cc1 | -3.23
4 | Cc1ncsc1CN1C[C@H](NC(=O)C2CCOCC2)[C@@H](C(C)C)C1 | -14.2
5 | OC1(CN2CCCC2)COCCN(c2noc(-c3ccccc3)n2)C1 (stereo not drawn) | -11
6 | O=C(c1cnc(-c2ncccn2)s1)N1CCCC(n2cccn2)C1 (stereo not drawn) | -10.1
7 | CC(C)(C)OC(=O)NC1CCCN(Cc2cccs2)C1 (stereo not drawn) | 6.34
8 | CCn1cc(CN2C[C@@H]3CCCN3C[C@@H]2CCSC)cn1 | -2.81
9 | CCc1ncnc(N2CCCC(c3cc(C(N)=O)[nH]n3)C2)c1F (stereo not drawn) | -3.89
10 | CN(Cc1ccc(C#N)cc1)C(=O)c1ccnc(OC2CCC2)c1 | 16.3
11 | CN(Cc1ccccn1)C(=O)c1ccc2c(c1O)OC(C)(C)C2 | 11.6
12 | Cc1noc(CN(C)c2nc(-c3ccco3)nc3c2CCN(C)CC3)n1 | -12.8
13 | O=c1[nH]nc(-c2cccs2)c2sc(N3CCOCC3)nc12 | -4.15
14 | CC(=O)N1CCC(c2nccnc2Nc2cnccn2)CC1 | -10.2
15 | O=C(CCn1cncn1)NCC1CCOC1 (stereo not drawn) | -6.75
16 | CCCn1[nH]cc/c1=N\C(=O)CN1CCCC1c1c(C)nn(C)c1C (stereo not drawn) | 16.9
17 | Clc1ccc(OCCCN2CCOC(Cn3cncn3)C2)cc1 (stereo not drawn) | 24.6
18 | CC1CCCN(C(=O)c2cc(-c3ccco3)cs2)C1 (stereo not drawn) | -14.8
19 | COc1ccc(CCN)cc1-c1ccc(S(C)(=O)=O)cc1 | -8.83
20 | CCC/N=c1/c(NC(=O)NCCCOC)c(O)oc2ccccc12 | 29.3
21 | CNc1cc(C)nc(N2C[C@@H](C(=O)O)[C@H](C3CC3)C2)n1 | -1.21
22 | Cc1nn2cc(CCNC(=O)c3cc(C(C)C)no3)nc2s1 | 12.6
23 | O=C(NCCc1ccc(F)cc1)C1CN(C(=O)Cn2cncn2)C1 | -13.2

Row | SMILES | cytotoxicity at 70.5 h [%]
24 | CCc1cnc(C)nc1NCCSc1nnc(C)n1CC | 0.501
25 | Cc1c(C(=O)NCCC(=O)N2CCCC2)oc2c(F)cccc12 | -6.53
26 | COc1ccc(S(=O)(=O)NC(=O)C(C)OC)c(OC)c1 (stereo not drawn) | -2.74
27 | O=C(CCc1cc(Br)cs1)NCCCn1ccnc1 | 5.85
28 | O=C(O)CCc1cc2n(n1)CCCN(C(=O)c1cc3ccccc3s1)C2 | 30
29 | Cn1cnc(S(=O)(=O)N2CCCCc3ccccc32)c1 | 1.57
30 | O=C1CCC(C(=O)N2CCOC(Cc3ccc(F)cc3)C2)=NN1 (stereo not drawn) | -11.8
31 | O=C(NCCc1nnc2n1CCC2)NCC1(c2ccccc2F)CC1 | -6.03
32 | O=C(CC1CC1)N1C[C@@H]2CCN(c3cnccn3)C[C@@H]2C1 | 4.03
33 | CCOCC1CN(C(=O)N(C)C)Cc2nn(C)cc21 (stereo not drawn) | -5.53
34 | CS(=O)(=O)N1CCO[C@@H]2CN(C(=O)C3CCOC3)CC[C@@H]2C1 (stereo partly drawn) | -6.14
35 | CCn1ccnc1CN1CCN(Cc2ccc(C)o2)[C@@H]2CS(=O)(=O)C[C@@H]21 | -4.31
36 | Cc1ccccc1OCCN1CCCC1CS(N)(=O)=O (stereo not drawn) | 0.0321
37 | O=C(Nc1cccnc1)[C@H]1C[C@@H]2CN(Cc3ccc(F)cc3)C[C@H]1O2 | -7.11
38 | COc1ccc([C@@H]2CN(C(=O)CCc3cc(Cl)no3)C[C@H]2N(C)C)cc1 | 4
39 | COc1cccc(-c2noc(-c3ccc(N4CC(N)C4)nc3)n2)c1OC | -0.582
40 | c1ccc(-n2nnnc2CNCc2ccc3c(c2)OCCO3)cc1 | -8.49
41 | CCCn1c(N2CCCC2)nc2c(C)nn(C)c2c1=O | -6.89
42 | Cc1ccc2c(c1)OC(C)CN2C(=O)CCc1cccnc1 (stereo not drawn) | 1.51
43 | Cc1cccc(C(=O)N2CCCC2c2c(C)n[nH]c2C)c1 (stereo not drawn) | -2.31
44 | CCc1nc(CN2CCC(C(=O)N(C)C)CC2)cs1 | 0.679
45 | CCn1ccnc1CN1CCCN(C(=O)COC2CCCCC2)CC1 | -3.09
46 | O=C1CC2(CCCNC2)C(=O)N1Cc1cccc(F)c1 (stereo not drawn) | -8.03

Row | SMILES | cytotoxicity at 70.5 h [%]
47 | CC1CCN(C(=O)CCN2Cc3ccccc3C[C@H]2C(N)=O)C1 (stereo partly drawn) | -6.72
48 | COc1ncc(CN(CCCN2CCOCC2)Cc2ccc(C)o2)cn1 | -4.04
49 | Fc1ccc(CN2CCCn3nnc(COCC4CC4)c3C2)cc1 | 16.6
50 | O=C(COC(=O)Cc1cccs1)NCc1cccc(NC(=O)C2CC2)c1 | -10.5
51 | Cn1cc(-c2nnc3sc(C4CCC4)nn23)cn1 | -12.3
52 | COc1cc2nc(C)n(CC(=O)NCCN(C)C)c(=O)c2cc1OC | -17.2
53 | CCc1c(C)sc2nc3n(CCN4CCOCC4)nc(SC)n3c(=O)c12 | 5.28
54 | CN(C)S(=O)(=O)c1ccc(-c2nc(C#N)c(NC3CC3)o2)o1 | -4.74
55 | CCN1CCC(CNC(=O)C2(c3cccc(C)c3)CCCCC2)CC1 | 1.1
56 | Cc1cc(C2CCCN(CCCS(=O)(=O)c3ccccc3)C2)n[nH]1 (stereo not drawn) | -14
57 | Cc1nc(-c2ccsc2)ccc1C(=O)N(C)CC(F)(F)F | -11.2
58 | O=C(NC(c1ccc(Cl)cc1)C(F)(F)F)c1nc(=O)[nH][nH]1 (stereo not drawn) | 29.9
59 | c1cncc(CN2CCO[C@@H]3CN(Cc4ccoc4)CC[C@@H]3C2)c1 | -7.13
60 | Cc1cc2cc(NC(=O)Cn3ncc(N4CCCC4)cc3=O)ccc2o1 | 15.3
61 | CN(C)CCOCC1CN(C(=O)c2ccsc2)Cc2ccnn2C1 (stereo not drawn) | -5.3
62 | Cc1cc(C2CCCCN2C(=O)CN2CC3(CCNCC3)OC2=O)no1 (stereo not drawn) | -6.52
63 | O=C(NCC1(O)CCSCC1)c1ccoc1 | -1.38
64 | CCN(CC)CC(=O)N1CCCC1Cn1cccn1 (stereo not drawn) | -4.89
65 | O=C(O)C1(Cc2ccc(-c3cccs3)cc2)CCNC1 (stereo not drawn) | -2.56
66 | CC(C)n1ncc2cc(NC(=O)N3CCC(N4CCCC4)C3)cnc21 (stereo not drawn) | 1.93
67 | Cc1cc(=O)n(CCNC(=O)c2ccccc2Cl)cn1 | 4.36
68 | CCC(=O)N1CCN(Cc2cc(-c3ccncc3)nn2C)CC1 | 5.2
69 | CCCS(=O)(=O)N1CCCC(c2nc(-c3ccccc3)c[nH]2)C1 (stereo not drawn) | -2.79

Row | SMILES | cytotoxicity at 70.5 h [%]
70 | CC(=O)c1cccc(S(=O)(=O)N2CCC(c3n[nH]c(C)n3)CC2)c1 | 2.75
71 | CN1C(=O)CC(c2cnn(C)c2)C12CCN(C(=O)c1cccn1C)CC2 (stereo not drawn) | -13.1
72 | CCc1nsc(N2CCc3sccc3C2)n1 | -2.5
73 | O=C(Nc1cccc2c1CCCC2)C1CCCN1c1nccs1 (stereo not drawn) | 2.35
74 | CC(C)[C@@H]1CN(C(=O)NCc2ccco2)C[C@H]1N(C)C | -5.48
75 | O=C(CC1CCCC1)NCCS(=O)(=O)N1CCN(c2ccccc2)CC1 | -3.36
76 | CSc1nc(C2CC2)nc(C)c1C(=O)NCc1ncc(C)o1 | -2.47
77 | COCCN(Cc1ccco1)c1ncc(C#N)cc1Cl | 20.3
78 | c1cc(-c2cn3nccc3nc2C2CCCCC2)nc(N2CCCC2)n1 | -7.05
79 | Cn1c(C(=O)N2CCC(C(N)=O)C2)c(Cl)c2ccccc21 (stereo not drawn) | -5.34
80 | CC(C)NC(=O)Nc1ccc(CNCc2cccc(C#N)c2)cc1 | -3.33
81 | COC(=O)C1CN(Cc2ccn(-c3ccc(F)cc3)n2)CCO1 (stereo not drawn) | 5.92
82 | CCCOc1ccc(CNC2CCCc3c2cnn3CC)cc1OC (stereo not drawn) | 29.4
83 | O=C1CC2(CCCCN2C(=O)c2ccncc2)CN1CC1CC1 (stereo not drawn) | 1.69
84 | CS(=O)(=O)C1CCN(S(=O)(=O)c2ccc(F)c(F)c2)C1 (stereo not drawn) | -5.07
85 | Cc1nc(CN2CCCN(C(=O)c3ccn(C)c(=O)c3)CC2)cs1 | 30.7
86 | CCC(NC(=O)C1CCN(S(C)(=O)=O)CC1)c1ccc(C)c(C)c1 (stereo not drawn) | -4.17
87 | CN(C(=O)c1ccc(-n2ncc(C#N)c2N)cc1)C1CCCC1 | -1.19
88 | CCS(=O)(=O)N1CCC2(CC1)CC(Oc1ccccn1)CO2 (stereo not drawn) | -18.2
89 | COc1ccc(C(=O)NC2CC2)c(OC)c1 | -11.5
90 | Cc1cccc(CN2CCN(C(=O)c3cccnc3O)CC2)c1 | -4.88
91 | O=C1CC2(CCCCC2)C(=O)N1CC(O)COCc1ccccc1F (stereo not drawn) | -4.1
92 | C=C(C)Cn1cc(C(N)=O)nc1C1CC1 | 20.9

Row | SMILES | cytotoxicity at 70.5 h [%]
93 | CCOC(=O)CNC(=O)N1CCCC(CNC(=O)c2ccco2)C1 (stereo not drawn) | -1.85
94 | O=C([C@@H]1C[C@@H]2CCN(Cc3ccccn3)C[C@H]2O1)N1CCCO1 | 2.74
95 | OC1CCN(c2ccc(CNc3nc4ccccc4s3)cc2F)CC1 | -9.14
96 | CC(C)CN1CCC2(C=C(C(=O)NC3CC3)c3ccccc32)CC1 | -11.9
97 | CC(=O)Nc1nc(C(=O)NCc2ccc(N3CCOCC3)nc2)cs1 | 14.9
98 | CCCc1cc(NCc2cc(C)on2)n2nccc2n1 | 14.2
99 | O=c1[nH]c2nc(N3CCCC3)ncc2c(=O)n1-c1cccc(F)c1 | -16.9
100 | CCN1CCN(Cc2nc(CCc3ccccc3)n[nH]2)CC1 | 29.9
101 | CC(C)Nc1ccc2nc(C3CCN(C(C)C)CC3)nn2c1 | -2.64
102 | COC(=O)C1CCCN1CC(=O)NCc1ccc(OCC(N)=O)cc1 (stereo not drawn) | 4.54
103 | Cc1ccc(-c2nc(CCNC(=O)C3CC(=O)N(C)C3)cs2)cc1 (stereo not drawn) | -98.5
104 | CN(C)C(CNC(=O)c1ccc(-n2cnnn2)cc1)c1ccccc1Cl (stereo not drawn) | 5.44
105 | Cn1ccc2c(-c3ccc(NC4CC4)nn3)ccnc21 | -5.5
106 | Cc1ccc(N2CC[C@@H]3[C@@H]2CCN3C(=O)Cc2cccs2)nn1 | -3.66
107 | COc1ccc(F)cc1C(=O)N1CCCC(n2nc(C)nc2C)C1 (stereo not drawn) | -9.24
108 | COC(=O)c1cc(OCC2CCC2)cc(C(=O)N[C@H]2CCCC[C@@H]2O)c1 | -8.47
109 | CC(C)(C)C(=O)N1CCC2(CNS(=O)(=O)c3cnccc3O2)C1 (stereo not drawn) | 41.2
110 | CNC(=O)c1ccc2c(c1O)OC(C)(C)C2 | -4.08
111 | Cc1ccc(N2CCCC(NCC(=O)Nc3cc(C)nn3C)C2)nn1 (stereo not drawn) | -4.79
112 | CC(=O)N[C@@H]1CN(C(=O)CC2CCOCC2)C[C@H]1O | -1.61
113 | O=C1CCC2(CCCN(C(=O)c3ccccn3)CC2)N1 (stereo not drawn) | -1.45
